Legend:
striatal cells = assay: Live cell count after 24 or 48 hours of culture with glutamate (Cellometer); assay type: cell-based, mice; conditions: cells cultured with glutamate, cysteamine administered 24 hours later; FIG. 3
Procedure: All experiments used cells with passages lower than 14. Cells were seeded into sterile 12 well plates at an appropriate density (80-120 k cells/well) to reach 50-75% confluence after 24 hours. […] Thereafter, wells were treated with test compounds. Following incubation with the compounds for 24 or 48 hours, wells were rinsed with DPBS, and detached using 500 uL Accutase (EMD). Pellets were rinsed and re-suspended in 250 uL DPBS and live cells were counted on a Cellometer Auto 2000.

[1] = tested on: ST HDH Q111/111 striatal cells; assay: Permeability/Cell Death assay based on CellTox Green (membrane integrity)
Procedure: (§1) All cell culture methods were carried out under sterile conditions in a class II laminar flow cabinet. The immortalized cell lines, ST HDH Q111/111 and ST HDH Q7/7 were derived from striatal neurons from HdhQ111/Q111 and HdhQ7/Q7 mice (expressing 111 and 7 glutamine repeats, respectively) and were purchased from Coriell. Cells were cultured in Dulbecco's Modified Eagle Medium (DMEM) supplemented with 10% FBS, 4 mM L-alanyl-L-glutamine (Corning Glutagro), and 400 μg/mL G418. Cells were grown at 33° C. in a 5% CO2 incubator. All experiments used cells with passages lower than 14.
(§2) Cells were plated at a density of 8×10^3 or 1.2×10^3 cells/well (CellTox or XTT, respectively) in sterile 96 well plates (100 uL). Cells were allowed to adhere overnight at 33° C. in a 5% CO2 incubator. Test compounds were applied and left to incubate for an additional 24 hours. Membrane integrity was assessed by staining with CellTox Green (Promega) reagent following manufacturer guidelines for the Endpoint (2×) Method. Viability was assessed using an XTT Cell Proliferation Kit (ATCC). Before adding XTT reagent, wells were aspirated and washed with serum free media. 50 uL of XTT reagent and 100 uL serum free media were then added to each well and incubated for 2-4 hours before acquiring data. […]

HDH Q111/111 cells = assay: XTT Cell Proliferation assay (viability); conditions: FIGS. 2A and 2B
Procedure: as §1, §2

Row | Compound | cell viability (striatal cells) | number of dead cells (CellTox Green) ([1]; HDH cells cultured with cysteamine and BSO, compared to BSO alone) | sensitivity of cells to toxicity induced by glutamate and/or the test agents ([1]; cysteamine in combination with GFPB (5 mM), and NMDA (500 uM)+4CPG (250 uM) or BSO (250 uM), FIG. 1B) | rescue of glutamate-induced excitotoxicity (XTT Cell Proliferation) (HDH Q111/111 cells; cysteamine 25 μM in culture with glutamate) | rescue of glutamate-induced excitotoxicity (XTT Cell Proliferation) (HDH Q111/111 cells; cysteamine 75 μM in culture with glutamate) | cytotoxicity (Cell Tox Green) ([1]; 5 mM glutamate given alone, 24 hours, FIG. 1A) | glutamate excitotoxicity (XTT Cell Proliferation) (HDH Q111/111 cells; glutamate in culture, HDH Q111/111 cells)
1 | NCCS [cysteamine, 2-aminoethanethiol] | positive effects of cysteamine on the cell viability was still observed | reduced the number of dead cells | able to reduce sensitivity of cells to toxicity | able to rescue glutamate-induced excitotoxicity | able to rescue glutamate-induced excitotoxicity | – | –
2 | N[C@@H](CCC(=O)O)C(=O)O [glutamate, L-Glutamic acid] | – | – | – | – | – | toxic to cells | experience glutamate excitotoxicity

From patent publication US20210113496A1, “Methods of Treating Excitotoxicity Disorders” (HORIZON ORPHAN LLC, priority 2018, published 2021)
